Data set [1] concerns Female CBA/Ca mice. Description: murine local lymph node assay (LLNA). Format: in vivo. The protocol: Female CBA/Ca mice, 7 to 9 weeks of age, were purchased from NOVA SCB Charles River, Germany. The mice were housed in HEPA-filtered air flow cages and kept on standard laboratory diet and water ad lib. The regional ethics committee, Jordbruksverket, approved the protocol and the procedure was performed in accordance with the guidelines.
A previously published protocol[24] of the LLNA[34] was used to assess the sensitization potential of the isosorbide bis-epoxides 1–3. The purity of the assessed isosorbide bis-epoxides was >99% (GC/MS or LC/MS) before testing of sensitization potential. The isosorbide bis-epoxides were tested in five different concentrations; 1: 3.9 mM (0.10% w/v), 39 mM (1.0% w/v), 190 mM (5.0% w/v), 390 mM (10% w/v), and 770 mM (20% w/v); 2: 21 mM (1.0% w/v), 54 mM (2.5% w/v), 110 mM (5.0% w/v), 210 mM (10% w/v), and 540 mM (25% w/v); and 3: 2.3 mM (0.10% w/v), 23 mM (1.0% w/v), 110 mM (5.0% w/v), 230 mM (10% w/v), and 460 mM (20% w/v). A detailed description is given in Supporting Information.
The three isosorbide bis-epoxides were evaluated for sensitization potential in vivo with the murine LLNA (Figure 2). The stimulation index (SI) is defined as the ratio between the dpm/lymph node for the test group and the control group. Test materials that at one or more concentrations cause an SI greater than 3 are considered positive in the LLNA. The estimated concentration required to induce an SI of 3 (EC3) is used to determine the sensitizing potency of the test compound. […] Isosorbide bis-epoxide 1 gave an EC3 value of 0.17 M (4.4%), 3 gave an EC3 value of 0.36 M (16%), and no EC3 value was obtained for 2 (for full results, see the Supporting Information, Table S1).
A previously published protocol1 of the LLNA2 was used to assess the sensitization potential of the isosorbide bis-epoxides 1-3. The purity of the assessed isosorbide bis-epoxides was >98% according to LC/MS analysis. The isosorbide bis-epoxides were tested in five different concentrations; 1: 3.87 mM […]
456 mM (20% w/v). Briefly, mice in groups of three received 25 µL of test compound dissolved in the vehicle acetone/olive oil (4:1 v/v), on the dorsum of the ears for three consecutive days (day 0, 1, and 2). A sixth group of four mice was treated with vehicle only (control group). On day 5, all mice were injected intravenously via the tail vein with 250 µL of phosphate buffered saline (PBS) (pH 7.4, 137 mM NaCl, 2.7 mM KCl, and 10 mM phosphate buffer) containing 20 µCi [methyl-3H]thymidine. Five hours later the mice were sacrificed, the draining lymph nodes were excised and pooled for each group, followed by preparation of single-cell suspensions of lymph nodes in PBS by using cell strainers (Falcon; BD Labware, Franklin Lakes, NJ, USA; pore size, 70 µm). Cell suspensions were washed twice with PBS, precipitated with trichloroacetic acid (TCA) (5%), and stored at 4 °C overnight. The samples were then centrifuged, resuspended in TCA (5%, 1 mL), and transferred to scintillation cocktail (10 mL) (EcoLume INC Radiochemicals, Solon, OH, USA). The incorporation of [methyl-3H]thymidine into DNA was measured by b-scintillation counting with a Beckman LS 6000TA instrument. Results are expressed as the mean dpm/lymph node for each experimental group and as stimulation index (SI). The SI is defined as the ratio between dpm/lymph node for the test group and the control group. Test materials that at one or more concentrations cause an SI greater than 3 are considered positive in the LLNA. EC3 values (the estimated concentration required to induce an SI of 3) were calculated by linear interpolation.
Results from the Local Lymph Node Assay
Table S1: Full results from the LLNA of bis-epoxides 1-3a
Test Test [3H]thymidine SI EC value

Data set [2] is described as follows: thermogravimetric analysis (TGA) of polymers formed with TETA. Particulars: polymer cured with TETA, TGA under nitrogen. Format: physicochemical. The method, then: Detailed information on the polymerization procedure and the thermogravimetric analysis (TGA) is given in the Supporting Information.
Pilot experiments using TGA were conducted to investigate the properties of the polymers formed from isosorbide bis-epoxides 1–3 and the commonly used curing agent TETA (Table 2 and Figure 6). The onset of degradation is described by the initial decomposition temperature (IDT) and is an indication of the thermal stability of the cured epoxy resins. The maximum weight loss rate (Rmax) and the temperature (Tmax) at Rmax were taken from the peak values of the thermograms. The activation energies (Ea) for the decomposition of the polymers were calculated from the thermograms based on the Horowitz–Metzger equation.[43],[44]

The test system of data set [3] is AcPHCKRM. Description: peptide depletion with AcPHCKRM. Particulars: peptide 1 mM, test compound 10 mM, DMSO/phosphate buffer pH 7.4 (1:1), room temperature. The method, then: Liquid chromatography-mass spectroscopy (LC-MS) analyses of peptide depletion experiments were performed using electrospray ionization (ESI) on a Hewlett-Packard 1100 HPLC/MS (Agilent Technologies, Waldbronn, Germany). The system included a vacuum degasser, a binary pump, an autoinjector, a column thermostat, a diode array detector, and a single quadrupole mass spectrometer. The high-performance liquid chromatography (HPLC) system was equipped with a HyPURITY C18 column (150 × 3 mm i.d., particle size 3 μm, Thermo Hypersil-Keystone, Thermo Electron Corp., Bellafonte, PA, USA). The mobile phase consisted of 0.005% pentafluoropropanoic acid, 0.1% acetic acid, and 5% acetonitrile in water (solvent A) and 0.005% pentafluoropropanoic acid, 0.1% acetic acid, and 50% water in acetonitrile (solvent B). […] The gradient conditions used were as follows: 0-8% B (0-3 min), 8-10% B (3-15 min), 10-100% B (15-18 min), 100% B (18-30 min), 100-0% B (30-30.1 min), 0% B (30.1-40 min). The ESI interface was used in positive ionization mode with the following spray chamber settings: nebulizer pressure, 35 psi; capillary voltage, 3000 V; drying gas temperature, 350 °C; and drying gas flow rate, 12 L/min. The fragmentor voltage was set to 120 V. The mass spectrometer was used in scan mode detecting molecular ions with m/z values ranging from 50 to 1800. All solvents were degassed with argon prior to use.

Setting [4] is: estimated concentration required to induce an SI of 3, linear interpolation.

The values that follow come from PMC9945177, “Nature-Derived Epoxy Resin Monomers with Reduced Sensitizing Capacity—Isosorbide-Based Bis-Epoxides” (Chemical Research in Toxicology, 2023).

Regarding `C1OC1CO[C@H]1CO[C@H]2[C@@H]1OC[C@H]2OCC1CO1` (stereo partly drawn) [Compound 1, (3R,3aR,6S,6aR)-3,6-O-Bis(3,4-epoxypropyl)-1,4:3,6-dianhydro-D-glucitol], in data set [1] (as printed in main text), the “EC3 value (%)” value came to 4.4%. Moreover, the sensitizing potency classification entry in data set [1] (classified by EC3) is reported as “moderate (EC3 > 2%, moderate)”. In data set [1] (setting [4]), the “EC3 value” is recorded as 0.17 M and the “EC3 value (% w/v)” value is 4.40 % w/v. Besides, in data set [1] (test concentration 0.10% w/v), the SI came out at 0.82 and the “[3H]thymidine incorporation (dpm/lymph node)” value came out at 213 dpm/lymph node. Moreover, in data set [1] (test concentration 1.0% w/v), the SI was determined as 1.41 and the “[3H]thymidine incorporation (dpm/lymph node)” value is on record as 367 dpm/lymph node. Besides, in data set [1] (test concentration 5.0% w/v), the SI is 3.28 and the “[3H]thymidine incorporation (dpm/lymph node)” value is recorded as 852 dpm/lymph node. Further, in data set [1] (test concentration 10% w/v), the SI was found to be 12.2 and the “[3H]thymidine incorporation (dpm/lymph node)” value is 3164 dpm/lymph node. For the same compound, in data set [1] (test concentration 20% w/v), the SI is listed as 15.8 and the “[3H]thymidine incorporation (dpm/lymph node)” value came out at 4121 dpm/lymph node. Moreover, in data set [2], the “Ea (activation energy for the decomposition of the cured epoxy resins)” value was 66.9 kcal/mol, the “IDT (initial decomposition temperature)” value was determined as 362 °C, the “Rmax (maximum weight loss rate)” value is “–3.24 %/°C” and the “Tmax (temperature at the maximum rate of weight loss)” value came out at 380 °C. Moreover, the “reactivity with the model peptide AcPHCKRM” value in data set [3] is on record as “highest reactivity”.
